In ChEMBL document CHEMBL1201862, “PubChem BioAssay data set” (2004):
Active and inactive are the calls of the source.

Legend:
[1] = AlphaScreen signal interference compounds, dose response, artefact control for ARNT-TACC3 interaction inhibitor project, biochemical, luminescence, cherry-pick (AID 651705); type: functional;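 further: AlphaScreen bead proximity signal that flags compounds interfering with the detection technology; potency reflects signal decrease which marks the compound as an assay artifact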
[2] = target: Beta-galactosidase (Escherichia coli, UniProt Q8VNN2); assay: PubChem AID 485352; type: functional
[3] = target: T1, Type-1 angiotensin II receptor (Homo sapiens, UniProt P30556); assay: AT1 receptor antagonists, dose response, selectivity assay for APJ receptor antagonist project, cell-based, uHTS hits (AID 463214); type: functional;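 further: antagonist potency against angiotensin II stimulated AT1 response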
T1 sequence (P30556 whole entry): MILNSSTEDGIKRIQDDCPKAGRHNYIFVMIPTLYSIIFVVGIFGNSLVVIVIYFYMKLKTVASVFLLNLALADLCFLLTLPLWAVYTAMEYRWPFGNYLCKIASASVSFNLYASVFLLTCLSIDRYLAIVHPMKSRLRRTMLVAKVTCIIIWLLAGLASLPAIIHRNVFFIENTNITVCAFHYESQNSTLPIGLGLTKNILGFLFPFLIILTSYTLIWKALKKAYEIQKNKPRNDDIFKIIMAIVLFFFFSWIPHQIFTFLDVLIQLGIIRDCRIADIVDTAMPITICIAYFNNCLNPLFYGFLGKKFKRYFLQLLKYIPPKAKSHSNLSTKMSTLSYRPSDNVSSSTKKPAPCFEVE

[4] = target: T2, Ubiquitin-conjugating enzyme E2 N (Homo sapiens, UniProt P61088); type: functional;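 further: Dose-response confirmation in a TR-FRET assay detecting UBC13-driven polyubiquitin chain formation, inhibition measured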
T2 sequence (P61088 whole entry): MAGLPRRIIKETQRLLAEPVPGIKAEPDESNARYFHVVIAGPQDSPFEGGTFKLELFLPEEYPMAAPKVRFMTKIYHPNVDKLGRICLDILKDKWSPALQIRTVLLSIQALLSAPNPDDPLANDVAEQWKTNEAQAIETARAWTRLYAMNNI

[5] = target: T3, Microphthalmia-associated transcription factor (Homo sapiens, UniProt O75030); assay: TRPM1 promoter luciferase signal decrease, dose response, MITF inhibitor project, cell-based, SK-MEL-5, cherry-picked, set 3 (AID 493073); type: functional
T3 sequence (O75030 whole entry): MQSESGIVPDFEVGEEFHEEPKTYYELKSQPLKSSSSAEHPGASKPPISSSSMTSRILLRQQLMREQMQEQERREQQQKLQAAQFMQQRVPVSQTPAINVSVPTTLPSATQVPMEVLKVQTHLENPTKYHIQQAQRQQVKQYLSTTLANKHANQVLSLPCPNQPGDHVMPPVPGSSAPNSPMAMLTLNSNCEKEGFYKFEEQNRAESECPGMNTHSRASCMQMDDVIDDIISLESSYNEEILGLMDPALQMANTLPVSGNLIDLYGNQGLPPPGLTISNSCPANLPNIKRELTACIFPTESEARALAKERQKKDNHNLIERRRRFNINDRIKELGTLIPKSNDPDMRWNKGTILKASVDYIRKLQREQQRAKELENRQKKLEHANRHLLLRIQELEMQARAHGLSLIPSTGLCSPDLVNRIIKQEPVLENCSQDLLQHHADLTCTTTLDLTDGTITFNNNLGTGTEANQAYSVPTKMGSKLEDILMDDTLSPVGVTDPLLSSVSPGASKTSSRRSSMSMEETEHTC

[6] = test system: A-375; assay: MITF: Counter assay: A375 proliferation Measured in Cell-Based System Using Plate Reader - 2084-03_Inhibitor_Dose_DryPowder_Activity. [Related pubchem assays (depositor defined):AID488944]; type: functional; settings: Homo sapiens
[7] = target: Melanocortin receptor 4 (Homo sapiens, UniProt P32245); type: functional, cell-based;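 further: Cell-based assay with luminescence read-out, confirmatory dose-response testing for agonist activity of biased ligands at MC4R; human U2OS cells with tagged receptor and beta-arrestin; potency of agonists that increase receptor coupling to beta-arrestin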
[8] = target: Tyrosine-protein phosphatase non-receptor type 11 (Homo sapiens, UniProt Q06124); assay: SHP2 phosphatase inhibition, dose response, selectivity assay for STEP inhibitor project, biochemical (AID 602367); type: functional; settings: read-out: IC50_Mean
[9] = target: Tyrosine-protein phosphatase non-receptor type 5 (Homo sapiens, UniProt P54829); assay: STEP phosphatase inhibitors, confirmation, biochemical, fluorescence intensity, uHTS hits (AID 602372); type: functional; settings: read-out: IC50_Mean
[10] = target: Dual specificity protein phosphatase 3 (Homo sapiens, UniProt P51452); assay: VHR phosphatase inhibition, dose response, selectivity assay for STEP inhibitor project, biochemical (AID 602374); type: functional; settings: read-out: IC50_Mean
[11] = target: Cytochrome P450 2D6 (Homo sapiens, UniProt P10635);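 further: CYP2D6 member of a cytochrome P450 panel assay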
[12] = NIH-3T3 fibroblast cytotoxicity, dose response, cytotoxicity control, cell-based, fluorescence, Alamar Blue, secondary assay (AID 2327); type: functional;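 further: NIH-3T3 mouse fibroblasts cultured with fluconazole at 8 µg/mL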
[13] = C. albicans growth with fluconazole, confirmation, fluorescence, retest (AID 2467); type: functional, cell-based
[14] = target: T4, Serine/threonine-protein phosphatase (Candida dubliniensis (strain CD36 / CBS 7987 / NCPF 3949 / NRRLY-17841) (Yeast), UniProt B9W6M3); assay: calcineurin pathway inhibitors in yeast reporter, dose response, S. cerevisiae, CDRE-lacZ, luminescence, secondary (AID 2388); type: functional, cell-based;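 further: yeast reporter cells carrying a calcineurin-responsive lacZ construct stimulated with calcium chloride; luminescent beta-galactosidase reporter signal in whole cells rather than isolated phosphatase activity; potency for inhibition where a drop in reporter signal means calcineurin blockade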
T4 sequence (B9W6M3 whole entry): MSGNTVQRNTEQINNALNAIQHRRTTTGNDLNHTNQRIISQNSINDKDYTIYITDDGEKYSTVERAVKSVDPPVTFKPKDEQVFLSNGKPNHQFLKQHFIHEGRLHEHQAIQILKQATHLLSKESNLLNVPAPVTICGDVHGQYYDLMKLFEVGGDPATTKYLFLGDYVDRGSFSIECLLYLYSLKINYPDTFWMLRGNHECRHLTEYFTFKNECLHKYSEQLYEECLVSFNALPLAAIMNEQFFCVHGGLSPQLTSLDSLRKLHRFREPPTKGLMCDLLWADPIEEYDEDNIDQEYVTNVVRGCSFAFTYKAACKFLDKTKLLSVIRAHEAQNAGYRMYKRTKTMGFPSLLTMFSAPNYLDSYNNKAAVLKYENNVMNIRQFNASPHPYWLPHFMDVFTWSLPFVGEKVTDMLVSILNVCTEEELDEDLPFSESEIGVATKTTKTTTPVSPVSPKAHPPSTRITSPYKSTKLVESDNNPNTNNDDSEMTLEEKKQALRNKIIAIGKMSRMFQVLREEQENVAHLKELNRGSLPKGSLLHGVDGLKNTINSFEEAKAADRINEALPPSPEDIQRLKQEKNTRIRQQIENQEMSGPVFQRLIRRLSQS

[15] = target: ATP-dependent molecular chaperone HSP82 (Candida albicans (strain WO-1) (Yeast), UniProt C4YTQ8); assay: loss of DOC-induced GRE-beta-galactosidase reporter signal, dose response, Hsp90 inhibitor project, S. cerevisiae, luminescence (AID 2400); type: functional, cell-based;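 further: beta-galactosidase luminescence from glucocorticoid response element reporter as proxy for Hsp90 function; inhibitor potency where signal loss means Hsp90 inhibition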
[16] = inhibitors of firefly luciferase expression or activity, dose response, H4 neuroglioma cells, luminescence (AID 1990); type: functional, cell-based
[17] = test system: BJ; assay: cytotoxicity toward BJ-TERT fibroblasts, dose response, cell-based, RAS-independent, luminescence (AID 1933); type: functional; settings: Homo sapiens
[18] = Luminescence Cell-Based Dose Response HTS to Identify Inhibitors of 5'UTR Stem-Loop Driven Prion Protein mRNA Translation in H4 Neuroglioblastoma Cells. [Related pubchem assays: 1827 (Project Summary), 1813 (Primary HTS)]; type: functional
[19] = inhibitors of SNCA 5'UTR-driven reporter translation, confirmation, H4 neuroglioma cells, luminescence (AID 1988); type: functional, cell-based
[20] = test system: BJ; assay: cells; type: functional, cell-based; settings: Homo sapiens
[21] = test system: BJ; assay: cytotoxicity toward BJ-TERT-LT-ST fibroblasts, dose response, cell-based, RAS-independent, luminescence (AID 1935); type: functional; settings: Homo sapiens;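 further: BJ fibroblasts immortalized with TERT plus LT and ST oncogenes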
[22] = cytotoxicity toward DRD oncogenic fibroblasts, dose response, cell-based, non-viral oncogenic, luminescence (AID 1934); type: functional; settings: Homo sapiens
[23] = target: T5, Short transient receptor potential channel 4 (Mus musculus, UniProt Q9QUQ5); assay: mouse TRPC4 channel inhibitors, dose response, cell-based, HEK293 TRPC4/mu-opioid, Fluo-4 calcium (AID 434942); type: functional;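 further: potency of inhibitors blocking the TRPC4 calcium response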
T5 sequence (Q9QUQ5 whole entry): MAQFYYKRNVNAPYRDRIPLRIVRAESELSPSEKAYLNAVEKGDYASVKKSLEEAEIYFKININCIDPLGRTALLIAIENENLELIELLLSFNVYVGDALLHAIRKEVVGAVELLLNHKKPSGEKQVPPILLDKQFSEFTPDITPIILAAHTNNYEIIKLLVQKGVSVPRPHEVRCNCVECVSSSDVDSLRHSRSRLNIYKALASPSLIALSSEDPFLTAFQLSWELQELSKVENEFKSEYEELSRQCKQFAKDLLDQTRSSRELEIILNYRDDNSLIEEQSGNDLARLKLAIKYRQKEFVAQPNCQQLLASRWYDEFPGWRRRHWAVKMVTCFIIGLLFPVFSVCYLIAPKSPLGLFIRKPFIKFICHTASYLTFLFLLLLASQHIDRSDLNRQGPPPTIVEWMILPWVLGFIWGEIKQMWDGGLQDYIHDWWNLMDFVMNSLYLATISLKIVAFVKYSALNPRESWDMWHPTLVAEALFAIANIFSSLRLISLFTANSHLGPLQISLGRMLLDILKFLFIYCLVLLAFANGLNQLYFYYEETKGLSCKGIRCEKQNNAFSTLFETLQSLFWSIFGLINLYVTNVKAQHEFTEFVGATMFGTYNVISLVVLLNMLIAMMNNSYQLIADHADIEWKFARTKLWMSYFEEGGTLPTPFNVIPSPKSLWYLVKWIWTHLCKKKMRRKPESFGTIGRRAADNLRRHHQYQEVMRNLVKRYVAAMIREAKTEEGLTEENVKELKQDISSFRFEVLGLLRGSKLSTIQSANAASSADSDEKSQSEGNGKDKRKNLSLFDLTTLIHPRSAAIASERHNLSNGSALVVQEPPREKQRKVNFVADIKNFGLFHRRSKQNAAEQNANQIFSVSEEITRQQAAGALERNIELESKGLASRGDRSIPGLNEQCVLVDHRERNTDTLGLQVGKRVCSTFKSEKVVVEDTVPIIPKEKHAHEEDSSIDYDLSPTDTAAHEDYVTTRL

[24] = test system: BJ; assay: cytotoxicity toward Ras-transformed BJeLR fibroblasts, dose response, cell-based, alamar blue fluorescence, cherrypicked samples (AID 2631); type: functional; settings: Homo sapiens;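 further: confirmatory dose-response assay in RAS-dependent BJ fibroblasts engineered with TERT, LT and ST, with cytotoxicity read by fluorescence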
[25] = target: Ras and Rab interactor 1/Tyrosine-protein kinase ABL1 (Homo sapiens, UniProt P00519+Q13671); type: functional;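 further: biochemical TR-FRET dose-response test measuring inhibition of binding between Rin1 and Abl proteins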
[26] = cells; type: functional, cell-based
[27] = cells; type: functional, cell-based; remark: listed apart in the source
[28] = target: Heat shock protein HSP 90-alpha (Homo sapiens, UniProt P07900); type: functional, organism-based
[29] = test system: INS1; assay: beta cell apoptosis inhibitors, cytokine rescue, dose response, luminescence, retest (AID 449756); type: functional, cell-based; settings: Rattus norvegicus;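 further: cell death triggered by IL-1 beta plus TNF-alpha plus IFN-gamma mixture; protective hits raise ATP signal compared with cytokine alone wells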
[30] = cytotoxicity in HEK-293T cells, dose response, cytotoxicity control for TCR NF-kB inhibitor project, luminescence, T-cell screen hits (AID 489026); type: functional, cell-based;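 further: cells exposed to compound about 14 hours before the viability readout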
[31] = M. tuberculosis H37Rv growth inhibitors, H37Rv strain (AID 1626); type: functional

Sequence of ATP-dependent molecular chaperone HSP82 (C4YTQ8 whole entry): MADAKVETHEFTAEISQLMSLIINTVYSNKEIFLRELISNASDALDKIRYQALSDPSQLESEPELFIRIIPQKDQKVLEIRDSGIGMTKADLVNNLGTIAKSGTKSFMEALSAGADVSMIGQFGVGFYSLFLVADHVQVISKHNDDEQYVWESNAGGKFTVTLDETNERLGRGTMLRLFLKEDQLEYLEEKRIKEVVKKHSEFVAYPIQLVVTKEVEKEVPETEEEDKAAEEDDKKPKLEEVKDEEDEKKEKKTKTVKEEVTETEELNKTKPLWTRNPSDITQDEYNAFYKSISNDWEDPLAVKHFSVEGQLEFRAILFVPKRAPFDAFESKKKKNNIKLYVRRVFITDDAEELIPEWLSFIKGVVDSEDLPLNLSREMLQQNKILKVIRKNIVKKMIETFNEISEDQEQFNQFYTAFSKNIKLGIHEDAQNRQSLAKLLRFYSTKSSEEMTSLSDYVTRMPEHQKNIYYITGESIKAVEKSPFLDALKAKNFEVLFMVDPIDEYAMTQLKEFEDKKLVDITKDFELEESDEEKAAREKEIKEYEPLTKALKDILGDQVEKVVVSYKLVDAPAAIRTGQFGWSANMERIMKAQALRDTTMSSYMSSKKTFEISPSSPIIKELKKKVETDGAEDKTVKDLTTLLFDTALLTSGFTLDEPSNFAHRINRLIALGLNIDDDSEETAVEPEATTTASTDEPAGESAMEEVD
Sequence of Melanocortin receptor 4 (P32245 whole entry): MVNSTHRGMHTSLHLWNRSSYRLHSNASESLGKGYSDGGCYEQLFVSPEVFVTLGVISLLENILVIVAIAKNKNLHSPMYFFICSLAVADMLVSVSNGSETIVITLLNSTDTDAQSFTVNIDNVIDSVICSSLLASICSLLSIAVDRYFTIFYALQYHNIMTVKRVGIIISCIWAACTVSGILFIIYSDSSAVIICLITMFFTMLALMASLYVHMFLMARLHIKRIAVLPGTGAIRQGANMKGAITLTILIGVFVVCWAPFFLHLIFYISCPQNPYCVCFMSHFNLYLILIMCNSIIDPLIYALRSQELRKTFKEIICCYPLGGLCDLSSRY
Sequence of Ras and Rab interactor 1/Tyrosine-protein kinase ABL1 (P00519 whole entry): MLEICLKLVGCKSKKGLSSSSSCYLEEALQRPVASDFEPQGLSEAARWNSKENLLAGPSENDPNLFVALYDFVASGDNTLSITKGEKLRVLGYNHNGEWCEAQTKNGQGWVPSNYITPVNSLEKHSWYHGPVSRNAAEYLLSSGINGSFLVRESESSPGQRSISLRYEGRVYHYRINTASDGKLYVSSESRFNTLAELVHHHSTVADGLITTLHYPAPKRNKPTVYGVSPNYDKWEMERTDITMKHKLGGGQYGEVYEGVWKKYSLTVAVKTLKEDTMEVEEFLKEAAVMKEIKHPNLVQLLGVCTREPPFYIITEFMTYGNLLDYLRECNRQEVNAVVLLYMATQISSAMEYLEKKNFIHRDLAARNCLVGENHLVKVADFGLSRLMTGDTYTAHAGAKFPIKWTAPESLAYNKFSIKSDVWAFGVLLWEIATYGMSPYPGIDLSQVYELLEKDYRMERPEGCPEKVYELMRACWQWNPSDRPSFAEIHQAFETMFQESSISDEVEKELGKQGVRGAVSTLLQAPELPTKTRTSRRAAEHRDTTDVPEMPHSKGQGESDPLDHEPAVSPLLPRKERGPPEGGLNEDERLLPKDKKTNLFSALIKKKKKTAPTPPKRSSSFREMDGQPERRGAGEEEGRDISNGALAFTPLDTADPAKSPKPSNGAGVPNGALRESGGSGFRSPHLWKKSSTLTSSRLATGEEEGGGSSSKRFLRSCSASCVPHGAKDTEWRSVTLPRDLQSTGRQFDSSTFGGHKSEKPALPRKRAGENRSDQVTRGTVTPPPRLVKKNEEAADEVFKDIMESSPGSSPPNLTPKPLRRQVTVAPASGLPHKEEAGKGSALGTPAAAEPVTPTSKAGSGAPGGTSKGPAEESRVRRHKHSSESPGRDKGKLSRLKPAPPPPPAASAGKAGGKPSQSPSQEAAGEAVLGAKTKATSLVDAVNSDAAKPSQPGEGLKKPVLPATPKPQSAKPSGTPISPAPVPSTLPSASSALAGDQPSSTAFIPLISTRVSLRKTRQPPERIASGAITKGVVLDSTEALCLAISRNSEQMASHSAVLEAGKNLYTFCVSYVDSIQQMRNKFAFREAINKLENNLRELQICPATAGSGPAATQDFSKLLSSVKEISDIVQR
Sequence of Ras and Rab interactor 1/Tyrosine-protein kinase ABL1 (Q13671 whole entry): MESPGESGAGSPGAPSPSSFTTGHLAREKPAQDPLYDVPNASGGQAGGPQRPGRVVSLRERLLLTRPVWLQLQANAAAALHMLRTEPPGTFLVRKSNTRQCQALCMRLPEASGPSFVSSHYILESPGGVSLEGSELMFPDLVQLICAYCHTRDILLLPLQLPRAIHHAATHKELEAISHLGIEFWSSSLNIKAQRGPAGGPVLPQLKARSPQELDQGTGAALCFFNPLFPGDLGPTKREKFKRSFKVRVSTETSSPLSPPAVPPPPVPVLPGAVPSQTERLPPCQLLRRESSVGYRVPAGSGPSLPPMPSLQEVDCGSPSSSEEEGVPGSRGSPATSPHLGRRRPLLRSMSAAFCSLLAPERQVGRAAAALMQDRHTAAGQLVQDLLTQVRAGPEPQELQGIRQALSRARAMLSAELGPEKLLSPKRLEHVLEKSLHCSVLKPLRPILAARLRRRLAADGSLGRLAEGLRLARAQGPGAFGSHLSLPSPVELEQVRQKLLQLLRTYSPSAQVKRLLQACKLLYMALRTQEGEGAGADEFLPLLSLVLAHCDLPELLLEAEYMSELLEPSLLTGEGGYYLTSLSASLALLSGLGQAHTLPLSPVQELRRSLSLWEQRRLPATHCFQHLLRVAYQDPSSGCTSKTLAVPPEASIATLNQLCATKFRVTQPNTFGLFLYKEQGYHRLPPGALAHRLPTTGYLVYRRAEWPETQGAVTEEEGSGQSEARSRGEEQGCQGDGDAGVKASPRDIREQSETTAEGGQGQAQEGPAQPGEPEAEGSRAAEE
Sequence of Beta-galactosidase (Q8VNN2 whole entry): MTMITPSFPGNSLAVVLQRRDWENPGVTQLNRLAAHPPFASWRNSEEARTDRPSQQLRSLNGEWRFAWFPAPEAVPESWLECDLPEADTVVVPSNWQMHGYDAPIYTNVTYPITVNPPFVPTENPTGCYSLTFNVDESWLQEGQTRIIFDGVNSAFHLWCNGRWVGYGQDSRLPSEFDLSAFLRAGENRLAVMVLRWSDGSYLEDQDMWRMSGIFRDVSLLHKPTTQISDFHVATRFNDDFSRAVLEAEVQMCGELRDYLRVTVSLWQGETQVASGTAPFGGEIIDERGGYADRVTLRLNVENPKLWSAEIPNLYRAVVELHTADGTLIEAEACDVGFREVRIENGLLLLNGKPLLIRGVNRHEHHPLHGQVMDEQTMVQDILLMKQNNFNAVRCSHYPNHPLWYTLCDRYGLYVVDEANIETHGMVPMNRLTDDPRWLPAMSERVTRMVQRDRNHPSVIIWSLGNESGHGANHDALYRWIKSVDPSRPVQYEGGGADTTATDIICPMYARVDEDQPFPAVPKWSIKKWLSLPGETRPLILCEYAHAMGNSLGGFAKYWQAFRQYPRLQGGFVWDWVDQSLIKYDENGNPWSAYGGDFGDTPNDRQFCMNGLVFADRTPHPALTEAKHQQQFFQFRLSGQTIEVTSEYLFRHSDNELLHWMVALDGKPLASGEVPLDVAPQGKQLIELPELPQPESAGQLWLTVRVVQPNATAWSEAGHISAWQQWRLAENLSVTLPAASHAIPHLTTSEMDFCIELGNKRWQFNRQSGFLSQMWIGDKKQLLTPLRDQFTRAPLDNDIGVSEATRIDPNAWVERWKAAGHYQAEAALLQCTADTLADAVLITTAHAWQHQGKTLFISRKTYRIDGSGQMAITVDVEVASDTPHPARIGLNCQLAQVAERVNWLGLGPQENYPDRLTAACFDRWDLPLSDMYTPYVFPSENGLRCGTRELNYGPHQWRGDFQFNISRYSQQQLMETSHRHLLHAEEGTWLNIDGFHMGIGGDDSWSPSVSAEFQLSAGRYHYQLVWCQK
Sequence of Cytochrome P450 2D6 (P10635 whole entry): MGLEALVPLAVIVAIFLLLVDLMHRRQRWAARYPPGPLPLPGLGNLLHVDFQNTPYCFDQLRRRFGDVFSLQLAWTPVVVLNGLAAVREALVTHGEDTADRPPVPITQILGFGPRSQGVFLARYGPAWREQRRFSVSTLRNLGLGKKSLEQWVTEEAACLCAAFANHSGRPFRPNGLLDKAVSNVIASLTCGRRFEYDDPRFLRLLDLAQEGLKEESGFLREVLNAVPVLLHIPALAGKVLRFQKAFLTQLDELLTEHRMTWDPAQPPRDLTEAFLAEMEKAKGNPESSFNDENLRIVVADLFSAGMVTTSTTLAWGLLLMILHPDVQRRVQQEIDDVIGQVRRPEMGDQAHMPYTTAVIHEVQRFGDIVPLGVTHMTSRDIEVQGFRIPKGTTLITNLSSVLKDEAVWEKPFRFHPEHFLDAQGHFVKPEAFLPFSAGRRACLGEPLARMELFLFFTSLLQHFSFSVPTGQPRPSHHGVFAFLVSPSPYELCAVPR
Sequence of Dual specificity protein phosphatase 3 (P51452 whole entry): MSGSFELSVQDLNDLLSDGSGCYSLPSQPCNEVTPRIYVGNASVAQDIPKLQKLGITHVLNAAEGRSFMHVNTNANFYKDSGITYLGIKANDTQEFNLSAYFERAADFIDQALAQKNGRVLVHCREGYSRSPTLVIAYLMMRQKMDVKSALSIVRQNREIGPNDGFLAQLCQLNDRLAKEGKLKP

## NNc1ccc(S(=O)(=O)N2CCCCC2)cn1
[1]
  AC50: 87.7 µM (active)

## O=C(CNC(=O)c1ccco1)NCC(=O)OCC(=O)c1ccc(Cl)c([N+](=O)[O-])c1
[2]
  EC50: > 40 µM (inactive)
[3]
  IC50: 7.54 µM (active)

## CCCCCCCNC(=O)C1(CC2CC(c3ccc(Cl)cc3)=NO2)CCNCC1 (configuration not stated)
[4]
  IC50: > 20 µM (inactive)
[5]
  AC50: 14 µM (active)
[6]
  AC50: 19.9 µM (active)
[7]
  EC50: > 89.2 µM (inactive)

## Cc1nnc(NC(=O)c2ccc(S(=O)(=O)N3CC(C)OC(C)C3)cc2)o1 (configuration not stated)
[1]
  AC50: 122 µM (active)

## OCCN1CCN(C(=S)c2ccc(Br)cc2)CC1
[8]
  IC50: 3.34 µM (active)
[9]
  IC50: 20.1 µM (inactive)
[10]
  IC50: 1.3 µM (active)
[11]
  AC50: 0.0224 µM (inconclusive)

## Nc1c(S(=O)(=O)c2ccccc2)c2nc3ccccc3nc2n1CCN1CCOCC1
[12]
  EC50: > 160 µM (inactive)
[13]
  EC50: 0.874 µM (active)
[14]
  EC50: > 180 µM (inactive)
[15]
  EC50: > 160 µM (inactive)

## COc1ccc2c(c1)sc(N)[n+]2Cc1cc(C)cc2cccnc12
[16]
  EC50: 7.07 µM (inconclusive)
[17]
  EC50: 1.98 µM (active)
[18]
  EC50: 8.01 µM (active)
[19]
  EC50: 0.2 µM (active)
[20]
  EC50: 1.55 µM (inconclusive)
[21]
  EC50: 1.5 µM (inconclusive)
[22]
  EC50: 1.61 µM (active)
[23]
  EC50: 1.33 µM (active)
[24]
  EC50: 0.605 µM (active)

## CNC(=O)Nc1cc(C(F)(F)F)cc(C(F)(F)F)c1
[12]
  EC50: > 150 µM (inactive)
[13]
  EC50: 1.34 µM (active)
[14]
  EC50: > 180 µM (inactive)
[15]
  EC50: > 150 µM (inactive)

## COc1ccc(Cl)cc1NC(=O)CN(C)C(=O)c1cc(-c2ccncc2)nc2ccccc12
[25]
  IC50: 1.86 µM (active)

## COc1cccc(-c2cnc3c(NC=O)cc(-c4ccoc4)cn23)c1
[7]
  EC50: > 89.2 µM (inactive)

## COc1cccc(/C=N/NC(=O)C(=O)Nc2ccccc2OC(F)(F)C(F)F)c1O
[12]
  EC50: > 160 µM (inactive)
[26]
  EC50: 92.8 µM (active)
[13]
  EC50: 0.46 µM (active)
[27]
  EC50: > 350 µM (not active)
[14]
  EC50: > 180 µM (inactive)
[28]
  AC50: 4.2 µM (active)
[29]
  AC50: 2.77 µM (active)
[15]
  EC50: 10.6 µM (active)

## O=C(N/N=C/c1ccccc1Cl)c1[nH]c2ccc(Br)cc2c1-c1ccccc1
[16]
  EC50: 0.304 µM (active)
[17]
  EC50: 0.608 µM (active)
[18]
  EC50: 0.136 µM (active)
[19]
  EC50: 0.163 µM (active)
[20]
  EC50: 27.5 µM (active)
[21]
  EC50: 0.748 µM (inconclusive)
[22]
  EC50: 0.615 µM (active)
[30]
  IC50: > 80 µM (inactive)
[24]
  EC50: 0.2 µM (active)

## O=C(Cc1ccc(NC(=O)C2CCN(C(=O)C3CCC3)CC2)cc1)Nc1ccc(C(=O)N2CCOCC2)cc1
[25]
  IC50: 16.5 µM (inactive)

## COc1ccc(/N=C2/C(=O)N3c4c(cccc42)C(C)=CC3(C)C)cc1
[2]
  EC50: > 40 µM (inactive)
[31]
  IC50: > 100 µM (active)
[3]
  IC50: > 40 µM (not active)
